The supplement of paper PMC10307832

Experiments:
Test in all cases: relative viability (nuclei count vs DMSO), 5 days (fraction); higher = more cells survive
[1] = compound: C1=CC2=NC=CN=C2C=C1/C=C/3\C(=O)NC(=O)S3 + NC(=O)Nc1cc(-c2cccc(F)c2)sc1C(=O)N[C@H]1CCCNC1 [AZD7762] (partner 0.2 µM)
Outline: (§1)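 Each reported value is a median over duplicate plates. It expresses relative viability: treated-well nuclei count divided by vehicle-well nuclei count. Lung cancer cell lines in 1536-well plates were dosed by pin tool a day after seeding, alone with one drug or with a fixed anchor-drug dose plus five library-drug doses (not always all listed) in √10 steps, and nuclei were counted after 5 days.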

[2] = compound: C1=CC2=NC=CN=C2C=C1/C=C/3\C(=O)NC(=O)S3 + O=C(c1cc(Cc2n[nH]c(=O)c3ccccc23)ccc1F)N1CCN(C(=O)C2CC2)CC1 [Olaparib] (partner 8 µM)
Outline: as §1

BGJ398 + Foretinib = compound: CCN1CCN(c2ccc(Nc3cc(N(C)C(=O)Nc4c(Cl)c(OC)cc(OC)c4Cl)ncn3)cc2)CC1 [BGJ398] + COc1cc2c(Oc3ccc(NC(=O)C4(C(=O)Nc5ccc(F)cc5)CC4)cc3F)ccnc2cc1OCCCN1CCOCC1 [Foretinib] (partner 0.25 µM)
Outline: as §1

BGJ398 + Crizotinib = compound: CCN1CCN(c2ccc(Nc3cc(N(C)C(=O)Nc4c(Cl)c(OC)cc(OC)c4Cl)ncn3)cc2)CC1 [BGJ398] + C[C@@H](Oc1cc(-c2cnn(C3CCNCC3)c2)cnc1N)c1c(Cl)ccc(F)c1Cl [Crizotinib] (partner 1 µM)
Outline: as §1

| Cell Line | relative viability ([1]; first compound 0.02 µM) | relative viability ([1]; first compound 0.06325 µM) | relative viability ([1]; first compound 0.2 µM) | relative viability ([1]; first compound 0.6325 µM) | relative viability ([1]; first compound 2 µM) | relative viability ([2]; first compound 0.02 µM) | relative viability ([2]; first compound 0.06325 µM) | relative viability ([2]; first compound 0.2 µM) | relative viability ([2]; first compound 0.6325 µM) | relative viability ([2]; first compound 2 µM) | relative viability (BGJ398 + Foretinib; first compound 0.01 µM) | relative viability (BGJ398 + Foretinib; first compound 0.03162 µM) | relative viability (BGJ398 + Foretinib; first compound 0.1 µM) | relative viability (BGJ398 + Foretinib; first compound 0.3162 µM) | relative viability (BGJ398 + Foretinib; first compound 1 µM) | relative viability (BGJ398 + Crizotinib; first compound 0.01 µM) | relative viability (BGJ398 + Crizotinib; first compound 0.03162 µM) | relative viability (BGJ398 + Crizotinib; first compound 0.1 µM) | relative viability (BGJ398 + Crizotinib; first compound 0.3162 µM) | relative viability (BGJ398 + Crizotinib; first compound 1 µM) |
| --- | --- | --- | --- | --- | --- | --- | --- | --- | --- | --- | --- | --- | --- | --- | --- | --- | --- | --- | --- | --- |
| 201T | 0.651 | 0.531 | 0.625 | 0.609 | 0.576 | 0.878 | 0.81 | 0.844 | 0.828 | 0.866 | 1.18 | 1.1 | 1.05 | 0.958 | 1.02 | 1.12 | 0.988 | 0.996 | 1.01 | 0.981 |
| A549 |  |  |  |  |  | 0.284 | 0.133 | 0.366 | 0.335 | 0.12 | 0.919 | 0.939 | 0.97 | 0.944 | 1.09 | 0.73 | 0.811 | 0.758 | 0.843 | 0.783 |
| A-427 | 0.826 | 0.849 | 0.709 | 0.8 | 0.776 | 0.71 | 0.83 | 0.716 | 0.716 | 0.634 | 1.09 | 0.919 | 0.954 | 0.715 | 0.623 | 0.905 | 0.72 | 0.698 | 0.598 | 0.517 |
| ABC-1 | 0.696 | 1.23 | 1.1 | 0.819 | 0.957 | 0.712 | 0.88 | 0.859 | 0.782 | 0.735 | 0.962 | 1.19 | 1.05 | 1.26 | 0.973 | 1.05 | 1.36 | 1.19 | 0.925 | 1.42 |
| BEN | 0.727 | 0.701 | 0.842 | 0.627 | 0.497 | 1.09 | 1.05 | 1.02 | 1.12 | 1.03 | 0.722 | 0.866 | 0.568 | 0.395 | 0.453 | 0.735 | 0.871 | 0.893 | 0.81 | 0.797 |
| CAL-12T | 0.675 | 0.531 | 0.655 | 0.582 | 0.726 | 0.64 | 0.784 | 0.692 | 0.779 | 0.672 | 1.04 | 1.13 | 1.04 | 1.11 | 1.12 | 0.68 | 0.796 | 0.548 | 0.811 | 0.631 |
| COR-L23 |  |  |  |  |  | 0.273 | 0.383 | 0.323 | 0.401 | 0.36 | 0.955 | 1.09 | 1.04 | 0.865 | 1.14 | 0.588 | 0.826 | 0.598 | 0.762 | 0.653 |
| COR-L 105 |  |  |  |  |  | 0.674 | 0.711 | 0.701 | 0.819 | 0.723 | 1.05 | 1.13 | 1.09 | 1.07 | 0.892 | 0.737 | 0.844 | 0.879 | 0.86 | 0.819 |
| Calu-6 |  |  |  |  |  | 0.602 | 0.621 | 0.597 | 0.592 | 0.568 | 0.879 | 0.819 | 0.912 | 0.836 | 0.88 | 0.737 | 0.86 | 0.948 | 0.745 | 0.781 |
| ChaGo-K-1 | 0.799 | 0.821 | 0.905 | 0.791 | 0.83 | 0.385 | 0.351 | 0.431 | 0.412 | 0.412 | 0.899 | 0.991 | 0.914 | 1.01 | 0.907 | 1.09 | 1.18 | 1.21 | 0.991 | 1.05 |
| EBC-1 |  |  |  |  |  | 0.626 | 0.84 | 0.754 | 0.76 | 0.723 | 0.0959 | 0.0812 | 0.0909 | 0.109 | 0.108 | 0.198 | 0.201 | 0.17 | 0.199 | 0.197 |
| EKVX | 0.677 | 0.653 | 0.595 | 0.692 | 0.436 | 0.668 | 0.828 | 0.824 | 0.812 | 0.838 | 0.763 | 0.409 | 0.805 | 0.643 | 0.686 | 0.819 | 0.919 | 0.901 | 0.991 | 0.917 |
| EMC-BAC-2 | 1.11 | 1.18 | 1.21 | 1.08 | 0.651 | 0.463 | 0.498 | 0.572 | 0.489 | 0.39 | 1.12 | 1.02 | 0.98 | 1.05 | 0.992 | 0.726 | 0.816 | 0.798 | 0.746 | 0.669 |
| EPLC-272H | 0.332 | 0.319 | 0.333 | 0.192 | 0.293 | 0.865 | 0.64 | 0.971 | 0.898 | 0.542 | 0.794 | 0.534 | 0.84 | 0.724 | 0.74 | 0.903 | 0.814 | 0.964 | 0.8 | 0.968 |
| H3255 | 0.716 | 0.819 | 0.903 | 0.901 | 0.825 | 0.583 | 0.509 | 0.56 | 0.594 | 0.517 | 0.985 |  | 0.961 | 0.386 | 0.878 | 0.798 |  | 0.877 | 0.634 | 0.829 |
| HARA | 0.255 | 0.209 | 0.402 | 0.276 | 0.493 | 0.899 | 0.54 | 0.687 | 1.06 | 0.615 | 0.941 | 0.901 | 0.829 | 0.905 | 0.79 | 0.953 | 1.06 | 1.04 | 1.02 | 1.07 |
| HCC-15 | 1.01 | 1.05 | 1.16 | 1.18 | 1 | 0.699 | 0.612 | 0.71 | 0.675 | 0.634 | 0.978 | 1.1 | 1.04 | 1.13 | 1.07 | 0.861 | 0.825 | 0.782 | 0.885 | 0.9 |
